biological target: T1, human PTH1 receptor (Homo sapiens, UniProt Q03431); test: In vitro cAMP signal activity in HKRK-B7 cells (LLC-PK1 cells overexpressing the human PTH1 receptor); type: cell-based; details: HKRK-B7 cells; compound at 1×10^−3 M; cAMP produced as percentage of that produced by hPTH(1-34) at 100 nM
T1 sequence (Q03431 27-593): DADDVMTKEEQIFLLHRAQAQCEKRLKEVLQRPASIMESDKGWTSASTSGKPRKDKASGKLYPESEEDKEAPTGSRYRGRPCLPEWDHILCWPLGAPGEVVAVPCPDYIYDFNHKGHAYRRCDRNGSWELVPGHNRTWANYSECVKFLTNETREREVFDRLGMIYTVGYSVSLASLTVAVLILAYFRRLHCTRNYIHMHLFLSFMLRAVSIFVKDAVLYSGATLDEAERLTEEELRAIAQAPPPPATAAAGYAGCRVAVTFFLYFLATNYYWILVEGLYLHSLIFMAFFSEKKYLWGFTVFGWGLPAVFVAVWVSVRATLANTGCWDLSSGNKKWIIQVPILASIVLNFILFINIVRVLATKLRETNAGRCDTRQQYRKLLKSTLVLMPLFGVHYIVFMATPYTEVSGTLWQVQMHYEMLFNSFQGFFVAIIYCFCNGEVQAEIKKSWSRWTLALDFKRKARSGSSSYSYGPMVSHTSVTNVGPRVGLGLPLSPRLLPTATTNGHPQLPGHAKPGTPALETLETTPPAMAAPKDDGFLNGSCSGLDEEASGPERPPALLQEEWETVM

For `Cc1cc(NC(=O)NCC(=O)O)ccc1/C=C/S(=O)(=O)N1CCC2(CC1)N=C(C1CCC(C)CC1)NC2=O` (stereo not drawn) [Compound 1169, [3-(3-methyl-4-{(E)-2-[2-(4-methyl-cyclohexyl)-4-oxo-1,3,8-triaza-spiro[4.5]dec-1-ene-8-sulfonyl]-vinyl}-phenyl)-ureido]-acetic acid], which “cAMP production activity (%)” value is on record?
The value was 50%.

For `COc1ccccc1/C=C/S(=O)(=O)N1CCC2(CC1)N=C(C1CCCCC1)NC2=O` [Compound 181, 2-cyclohexyl-8-[(E)-2-(2-methoxy-phenyl)-ethenesulfonyl]-1,3,8-triaza-spiro[4.5]dec-1-en-4-one], which “cAMP production activity (%)” value is on record?
Its value is 19%.

`Cc1cc(N(C)C(N)=O)cc(C)c1CCS(=O)(=O)N1CCC2(CC1)N=C(CCCCCCCCCF)NC2=O` [Compound 1327, 1-(4-{2-[2-(9-Fluoro-nonyl)-4-oxo-1,3,8-triaza-spiro[4.5]dec-1-ene-8-sulfonyl]-ethyl}-3,5-dimethyl-phenyl)-1-methyl-urea] was tested. Which “cAMP production activity (%)” value did it give?
The value was 92%.

How did the “cAMP production activity (%)” value turn out when `Cc1cc(N2C(=O)CNC2=O)ccc1CCS(=O)(=O)N1CCC2(CC1)N=C(C1CCC(CCCC(F)(F)F)CC1)NC2=O` (stereo not drawn) [Compound 944, 3-[3-methyl-4-(2-{4-oxo-2-[4-(4,4,4-trifluoro-butyl)-cyclohexyl]-1,3,8-triaza-spiro[4.5]dec-1-ene-8-sulfonyl}-ethyl)-phenyl]-imidazolidine-2,4-dione] was run?
The value was 71%.

`CCCCCCCCCC1=NC2(CCN(S(=O)(=O)CCc3c(C)cc(C(=O)N4CCC4)cc3C)CC2)C(=O)N1` [Compound 982, 8-{2-[4-(azetidine-1-carbonyl)-2,6-dimethyl-phenyl]-ethanesulfonyl}-2-nonyl-1,3,8-triaza-spiro[4.5]dec-1-en-4-one] was tested. Which “cAMP production activity (%)” value did it give?
The value was 96%.

For `CC(C)COC(=O)NCc1ccc(CCS(=O)(=O)N2CCC3(CC2)N=C(C2CCCCC2)NC3=O)cc1` [Compound 658, {4-[2-(2-Cyclohexyl-4-oxo-1,3,8-triaza-spiro[4.5]dec-1-ene-8-sulfonyl)-ethyl]-benzyl}-carbamic acid isobutyl ester], which “cAMP production activity (%)” value is on record?
The value was 84%.

For `Cc1cc(C(=O)N(C)C)ccc1CCS(=O)(=O)N1CCC2(CC1)N=C(Nc1cccc(C(F)(F)F)c1)NC2=O` [Compound 1395, 3,N,N-Trimethyl-4-{2-[4-oxo-2-(3-trifluoromethyl-phenylamino)-1,3,8-triaza-spiro[4.5]dec-1-ene-8-sulfonyl]-ethyl}-benzamide], which “cAMP production activity (%)” value is on record?
The value was 68%.

How did the “cAMP production activity (%)” value turn out when `Cc1cc(N(C)C(N)=O)cc(C)c1CC[S@TB3](=O)(=O)N1CCC2(CC1)N=C(C1CC(C(F)(F)F)CC(C(F)(F)F)C1)NC2=O` [Compound 1138, 1-(4-{2-[2-((1R,3R,5S)-3,5-bis-trifluoromethyl-cyclohexyl)-4-oxo-1,3,8-triaza-spiro[4.5]dec-1-ene-8-sulfonyl]-ethyl}-3,5-dimethyl-phenyl)-1-methyl-urea] was run?
Its value is 77%.

With `Cc1cc(C(=O)N2CCC(C)(O)CC2)cc(C)c1/C=C/[S@TB4](=O)(=O)N1CCC2(CC1)N=C(c1cccc(OCCCC(F)(F)C(F)(F)F)c1)NC2=O` [Compound 1096, 8-{(E)-2-[4-(4-hydroxy-4-methyl-piperidine-1-carbonyl)-2,6-dimethyl-phenyl]-ethenesulfonyl}-2-[3-(4,4,5,5,5-pentafluoro-pentyloxy)-phenyl]-1,3,8-triaza-spiro[4.5]dec-1-en-4-one] as the molecule, how does the “cAMP production activity (%)” value read?
Its value is 93%.

Which “cAMP production activity (%)” value does the source give for `CN(CCO)S(=O)(=O)c1ccc(/C=C/S(=O)(=O)N2CCC3(CC2)N=C(C2CCCCC2)NC3=O)c(C(F)(F)F)c1` [Compound 495, 4-[(E)-2-(2-cyclohexyl-4-oxo-1,3,8-triaza-spiro[4.5]dec-1-ene-8-sulfonyl)-vinyl]-N-(2-hydroxy-ethyl)-N-methyl-3-trifluoromethyl-benzenesulfonamide] here?
Its value is 21%.

For `CC(=O)N(C)c1ccc(/C=C/CS(=O)(=O)N2CCC3(CC2)N=C(C2CCC(C)CC2)NC3=O)c(C)c1` (stereo not drawn) [Compound 744, N-Methyl-N-(3-methyl-4-{(E)-3-[2-(4-methyl-cyclohexyl)-4-oxo-1,3,8-triaza-spiro[4.5]dec-1-ene-8-sulfonyl]-propenyl}-phenyl)-acetamide], which “cAMP production activity (%)” value is on record?
The value was 19%.

With `[2H]C([2H])([2H])C([2H])([2H])Oc1cc(C2=NC3(CCN(S(=O)(=O)/C=C/c4c(C)cc(C(=O)N5CCC(C)(O)CC5)cc4C)CC3)C(=O)N2)ccc1F` [Compound 1224, 2-(3-[1,1,2,2,2-^2H5]ethoxy-4-fluoro-phenyl)-8-{(E)-2-[4-(4-hydroxy-4-methyl-piperidine-1-carbonyl)-2,6-dimethyl-phenyl]-ethenesulfonyl}-1,3,8-triaza-spiro[4.5]dec-1-en-4-one] as the molecule, how does the “cAMP production activity (%)” value read?
The value was 88%.

How did the “cAMP production activity (%)” value turn out when `CC(=O)Nc1ccc(CCS(=O)(=O)N2CCC3(CC2)N=C([C@H]2CC[C@@H](CC=C(F)F)CC2)NC3=O)c(C)c1` [Compound 1068, N-[4-(2-{2-[4-(3,3-difluoro-allyl)-cyclohexyl]-4-oxo-1,3,8-triaza-spiro[4.5]dec-1-ene-8-sulfonyl}-ethyl)-3-methyl-phenyl]-acetamide] was run?
The value was 68%.

`[2H]C([2H])([2H])C([2H])([2H])Oc1ccc(C2=NC3(CCN(S(=O)(=O)/C=C/c4c(C)cc(C(=O)N5CCC(O)(CF)CC5)cc4C)CC3)C(=O)N2)cc1C(F)(F)F` [Compound 1253, 2-(4-[1,1,2,2,2-^2H5]ethoxy-3-trifluoromethyl-phenyl)-8-{(E)-2-[4-(4-fluoromethyl-4-hydroxy-piperidine-1-carbonyl)-2,6-dimethyl-phenyl]-ethenesulfonyl}-1,3,8-triaza-spiro[4.5]dec-1-en-4-one] was tested. Which “cAMP production activity (%)” value did it give?
The value was 81%.

How did the “cAMP production activity (%)” value turn out when `O=C1NC(CCCCCCCC(F)(F)C(F)(F)F)=NC12CCN(S(=O)(=O)CCc1cccc3c1ccn3C[C@H](O)CO)CC2` [Compound 788, 8-{2-[1-((S)-2,3-dihydroxy-propyl)-1H-indol-4-yl]-ethanesulfonyl}-2-(8,8,9,9,9-pentafluoro-nonyl)-1,3,8-triaza-spiro[4.5]dec-1-en-4-one] was run?
The value was 142%.

For `CCCCCCCC#CC1=NC2(CCN([S@TB17](=O)(=O)CCc3c(C)cc(N(C)C(N)=O)cc3C)CC2)C(=O)N1` [Compound 1083, 1-{3,5-dimethyl-4-[2-(2-non-1-ynyl-4-oxo-1,3,8-triaza-spiro[4.5]dec-1-ene-8-sulfonyl)-ethyl]-phenyl}-1-methyl-urea], which “cAMP production activity (%)” value is on record?
The value was 113%.

`Cc1noc(C2CCN(C(=O)c3ccc(CCS(=O)(=O)N4CCC5(CC4)N=C(c4cccc(C(F)(F)F)c4)NC5=O)c(C)c3)CC2)n1` [Compound 358, 8-(2-{2-methyl-4-[4-(3-methyl-[1,2,4]oxadiazol-5-yl)-piperidine-1-carbonyl]-phenyl}-ethanesulfonyl)-2-(3-trifluoromethyl-phenyl)-1,3,8-triaza-spiro[4.5]dec-1-en-4-one] was tested. Which “cAMP production activity (%)” value did it give?
The value was 71%.

How did the “cAMP production activity (%)” value turn out when `Cc1cc(C(=O)N2CCC(O)(CF)CC2)cc(C)c1/C=C/S(=O)(=O)N1CCC2(CC1)N=C(c1ccc(F)c(OCCCF)c1)NC2=O` [Compound 1264, 2-[4-fluoro-3-(3-fluoro-propoxy)-phenyl]-8-{(E)-2-[4-(4-fluoromethyl-4-hydroxy-piperidine-1-carbonyl)-2,6-dimethyl-phenyl]-ethenesulfonyl}-1,3,8-triaza-spiro[4.5]dec-1-en-4-one] was run?
The value was 77%.

For `Cc1cc(N(C)C(N)=O)cc(C)c1CCS(=O)(=O)N1CCC2(CC1)N=C(c1cccc(CCCCCC(F)(F)F)c1)NC2=O` [Compound 1345, 1-[3,5-dimethyl-4-(2-{4-oxo-2-[3-(6,6,6-trifluoro-hexyl)-phenyl]-1,3,8-triaza-spiro[4.5]dec-1-ene-8-sulfonyl}-ethyl)-phenyl]-1-methyl-urea], which “cAMP production activity (%)” value is on record?
The value was 107%.

For `Cc1cc(C(=O)N(C)C)ccc1CCS(=O)(=O)N1CCC2(CC1)N=C(c1cccc(C(F)(F)F)c1C)NC2=O` [Compound 111, 3,N,N-trimethyl-4-{2-[2-(2-methyl-3-trifluoromethyl-phenyl)-4-oxo-1,3,8-triaza-spiro[4.5]dec-1-ene-8-sulfonyl]-ethyl}-benzamide], which “cAMP production activity (%)” value is on record?
The value was 93%.

For `CCc1cc(N(C)C(N)=O)ccc1/C=C/S(=O)(=O)N1CCC2(CC1)N=C(C1CCC(C)CC1)NC2=O` (stereo not drawn) [Compound 727, 1-(3-ethyl-4-{(E)-2-[2-(4-methyl-cyclohexyl)-4-oxo-1,3,8-triaza-spiro[4.5]dec-1-ene-8-sulfonyl]-vinyl}-phenyl)-1-methyl-urea], which “cAMP production activity (%)” value is on record?
The value was 52%.

`O=C1NC(C2CCCCC2)=NC12CCN(S(=O)(=O)/C=C/c1cccc3c1ccn3CCCCO)CC2` [Compound 478, 2-cyclohexyl-8-{(E)-2-[1-(4-hydroxy-butyl)-1H-indol-4-yl]-ethenesulfonyl}-1,3,8-triaza-spiro[4.5]dec-1-en-4-one] was tested. Which “cAMP production activity (%)” value did it give?
Its value is 33%.

With `Cc1oc(-c2ccccc2)nc1CC(=O)N1CCCC(C2=NC3(CCN(S(=O)(=O)CCc4cccc5ccccc45)CC3)C(=O)N2)C1` (stereo not drawn) [Compound 434, 2-{1-[2-(5-methyl-2-phenyl-oxazol-4-yl)-acetyl]-piperidin-3-yl}-8-(2-naphthalen-1-yl-ethanesulfonyl)-1,3,8-triaza-spiro[4.5]dec-1-en-4-one] as the molecule, how does the “cAMP production activity (%)” value read?
The value was 25%.

With `CNC1CCN(C(=O)c2ccc(CCS(=O)(=O)N3CCC4(CC3)N=C(c3cccc(C(F)(F)F)c3)NC4=O)c(C)c2)C1` (stereo not drawn) [Compound 444, 8-{2-[2-Methyl-4-(3-methylamino-pyrrolidine-1-carbonyl)-phenyl]-ethanesulfonyl}-2-(3-trifluoromethyl-phenyl)-1,3,8-triaza-spiro[4.5]dec-1-en-4-one] as the molecule, how does the “cAMP production activity (%)” value read?
Its value is 46%.

Source: patent US9169254B2, “Spiroimidazolone derivative” (Chugai Seiyaku Kabushiki Kaisha, priority 2009, dated 2015)
